{"source": "patent US8987449B2", "about": "“Medicine for treating ischemic brain injury and its sequelae, and preparation method thereof” (Haimin Lei, priority 2011, dated 2015)", "key": {"[1]": {"tested_on": "ICR white mice", "assay": "Acute toxic experiment of mice by oral administration", "type": "in vivo, mouse", "design": "key to Animal reaction in 14 days after the administration: appearance / Animal reaction in 14 days after the administration: behavior / Animal reaction in 14 days after the administration: hair / Animal reaction in 14 days after the administration: respiration / Animal reaction in 14 days after the administration: posture / Animal reaction in 14 days after the administration: reaction: ✓ means normal", "details": "for Animal reaction in 14 days after the administration: death: 10 animals; for Animal reaction in 14 days after the administration: death / Animal reaction in 14 days after the administration: appearance / Animal reaction in 14 days after the administration: behavior / Animal reaction in 14 days after the administration: hair / Animal reaction in 14 days after the administration: posture / Animal reaction in 14 days after the administration: reaction / Animal reaction in 14 days after the administration: respiration: oral 3 x 1800 mg/kg (5400 mg/kg) in one day", "protocol": "ICR white mice (half female and half male, 18-22 g, experiment animal certificate No.: SCXK (Jing) 2006-0009);\nLQC-T4 (white powder (self made); and LQC-T4 4500 mg was dissolved into 0.5% sodium carboxymethyl cellulose 100 ml and then suspended by supersonic wave. The suspension was used in situ).\nThe qualified animals were quarantined and weighed before the administration. The animals were divided into groups randomly by weight. The intragastric administration tool was used for mice to carry out the intragastric administration. The mice were fasted but not water-deprived (continuously for 14 h) overnight before being administrated. The mice were administrated at 9:00 AM for the first time (1800 mg/kg) on the present administration day and observed continuously for 1 h. The mice were administrated for the second time (1800 mg/kg) at an interval of 6 h since the first administration and observed continuously for 1 h. The mice were administrated for the third time (1800 mg/kg) at an interval of 6 h since the second administration, observed continuously for 1 h and then the mice were fed."}, "[2]": {"tested_on": "rat cortex neurons after cerebral ischemia", "assay": "Brain histopathologic morphology after cerebral ischemia (HE staining of cortex)", "type": "in vivo", "details": "MCAO rats, compared with model group", "protocol": "The same as effect example 4\n10% chloral hydrate (0.35 g/kg) was injected into the abdominal cavity of a rat to anesthetize thereof. The thoracic cavity was cut to expose the heart fully. It was intubated through left ventricle. Firstly, it was washed with 37[…] saline solution 300 ml and perfused with pre-cooled 4% paraformaldehyde phosphate buffer solution (pH 7.2). When the rat was adequately fixed and the body was stiff, the head was cut and the brain was taken rapidly. And the brain was dipped into 4% paraformaldehyde solution and fixed for 24 h. Next, it was put into tissue vacuum hydroextractor, was dehydrated with gradient ethanol, made transparent with xylene, and imbedded into paraffin. 3-5 examples were taken for each group. And then 3 mm-4 mm tissue block from chiasma opticum towards caudal end at coronal position was taken, wherein the thickness of brain slice was 3 μm.\nThe rat cortex damage after cerebral ischemia and the effect of the medicine were observed through HE staining."}, "[3]": {"tested_on": "chicken chorioallantoic membrane (CAM)", "assay": "Effect of LQC-T on CAM angiogenesis (CAM method, vessel count)", "type": "in vivo", "details": "20 μg/chicken embryo", "protocol": "Embryonated chicken eggs of Lohmann of German, egg weight 50-60 g (embryo experiment center of Chinese Agriculture University)\nLQC-T (1-6) (prepared by the methods of examples 2-7), wherein the purity was ≧98%, determined by high performance liquid chromatography (HPLC), meeting the requirements of the experiment. The powder was carefully sealed and preserved at 4° C.\nAseptic gelatin sponge, which was made into a wafer having a diameter of 5 mm by a hole-puncher in advance, was used as sample carrier. The prepared LQC-T series compounds were added according to 20 μg/chicken embryo in an aseptic environment. The 0.9% physiological saline was used in a blank group. The samples were air-dried in an aseptic environment.\nA hatching egg after disinfection was put into a 37° C. incubation box with air sac upward until the seventh day of incubation. The egg embryo was disinfected using alcohol at a super clean bench, and then a small hole was drilled at the top of the egg embryo using a dental drill, and the nearby egg shell and shell membrane were removed carefully to form the opening with the size of about 1.2 cm×1.2 cm. After spotting the location for applying the sample, the air sac was broken with injection needle at the interface between air sac and the yolk and then 1-2 drops of aseptic physiological saline was injected so that the air sac membrane was separated from CAM membrane. Then the upper air sac membrane was slightly removed with a nipper to expose the lower CAM membrane.\nThe medicine-containing carrier was softly put by a nipper at the locations of CAM and yolk cyst membrane with fewer vessels, the opening was then sealed with aseptic transparent tape and incubation was continued for another 72 h.\nAfter the incubation, the transparent tape blocking the chicken embryo air sac was removed with a nipper. The liquid of equal-volumetrically mixed methanol/acetone 1-2 ml was added and fixed at room temperature for 10 min. The CAM membrane was carefully removed and put it onto a slide. Then it was observed and a photograph was taken. The effect of the compounds on angiogenesis was evaluated by the count analytic method using the numbers of great vessels, medium vessels and small vessels arranged radially around by the carrier.\nAll the data were statistically analyzed using SPSS11.0 software pack. The difference between the administration group and the blank group was given through one-way variance analysis. P<0.05 had statistical significance."}}}
{"smiles": "COc1cc(C(=O)OCc2nc(C)c(C)nc2C)ccc1OCc1nc(C)c(C)nc1C", "note": "[LQC-T4, (3,5,6-trimethylpyrazine-2-yl)methyl 3-methoxy-4-((3,5,6-trimethylpyrazine-2-yl)methoxy) benzoate]", "values": [{"measurement": "Animal reaction in 14 days after the administration: death", "setting": "[1]; mice ♀", "result": 0}, {"measurement": "Animal reaction in 14 days after the administration: appearance", "setting": "[1]; mice ♀", "result": "✓"}, {"measurement": "Animal reaction in 14 days after the administration: behavior", "setting": "[1]; mice ♀", "result": "✓"}, {"measurement": "Animal reaction in 14 days after the administration: hair", "setting": "[1]; mice ♀", "result": "✓"}, {"measurement": "Animal reaction in 14 days after the administration: posture", "setting": "[1]; mice ♀", "result": "✓"}, {"measurement": "Animal reaction in 14 days after the administration: reaction", "setting": "[1]; mice ♀", "result": "✓"}, {"measurement": "Animal reaction in 14 days after the administration: respiration", "setting": "[1]; mice ♀", "result": "✓"}, {"measurement": "Animal reaction in 14 days after the administration: death", "setting": "[1]; mice ♂", "result": 0}, {"measurement": "Animal reaction in 14 days after the administration: appearance", "setting": "[1]; mice ♂", "result": "✓"}, {"measurement": "Animal reaction in 14 days after the administration: behavior", "setting": "[1]; mice ♂", "result": "✓"}, {"measurement": "Animal reaction in 14 days after the administration: hair", "setting": "[1]; mice ♂", "result": "✓"}, {"measurement": "Animal reaction in 14 days after the administration: posture", "setting": "[1]; mice ♂", "result": "✓"}, {"measurement": "Animal reaction in 14 days after the administration: reaction", "setting": "[1]; mice ♂", "result": "✓"}, {"measurement": "Animal reaction in 14 days after the administration: respiration", "setting": "[1]; mice ♂", "result": "✓"}, {"measurement": "death in 12 h after the administration", "setting": "[1]; mice, oral 3 x 1800 mg/kg", "result": "No death was observed"}, {"measurement": "toxic reaction at the maximum dosage", "setting": "[1]; mice, oral, maximum dosage of 5400 mg/kg, observed continuously for 14 days", "result": "No toxic reaction was observed"}, {"measurement": "remaining of the complete neuron of the rat cortex after cerebral ischemia (HE staining)", "setting": "[2]; 60 mg/kg", "result": "a larger amount of neurons which were distinct and complete in structure"}, {"measurement": "remaining of the complete neuron of the rat cortex after cerebral ischemia (HE staining)", "setting": "[2]; 120 mg/kg", "result": "a larger amount of neurons which were distinct and complete in structure"}, {"measurement": "small vessel angiogenesis of CAM model, Medicine group (X ± S)", "setting": "[3]; 72 h incubation, number of small vessels, blank group 8.67 ± 1.03", "result": "14.4 ± 2.16"}, {"measurement": "effect on growth of new (small) vessels compared with the blank group", "setting": "[3]; result in words", "result": "significant promoting effect"}]}
{"smiles": "Cc1nc(C)c(C)nc1C", "note": "[TMP, tetramethylpyrazine, reference compound]", "values": [{"measurement": "remaining of the complete neuron of the rat cortex after cerebral ischemia (HE staining)", "setting": "[2]; TMP group", "result": "a lower level of damage compared with the model group"}]}
